{
  "source": "patent US20160022757A1",
  "about": "“THERAPEUTIC METHODS FOR TREATING SOLID TUMORS AND RELATED DIAGNOSTIC METHODS” (ICAHN SCHOOL OF MEDICINE AT MOUNT SINAI, priority 2013, published 2016)",
  "key": {"[1]": {"system": "ras^G12V p53^RNAi pten^RNAi apc^RNAi animals (adult hindgut)", "experiment": "Dissemination (distant migration) after compound feeding, four-hit model", "format": "in vivo, Drosophila", "conditions": "for dissemination in combination with bortezomib: fed together with low non-toxic bortezomib (1 μM); for distant migration (dissemination into the abdominal cavity): four-hit model ras^G12V p53^RNAi pten^RNAi apc^RNAi, compounds fed for one week, single agent", "method": "(§1) Targeted expression in the adult hindgut: Multigenic combinations were targeted to the adult hindgut using the hindgut specific gal4 line byn-gal4 (V. Hartenstein) and tub-gal80^ts (Bloomington). Crosses were kept at 16° C. to keep the transgenes silent during development and adult females were transferred to 29° C. to induce transgene expression. In addition, GFP and Dcr2 (Dicer 2) were co-expressed to mark the hindgut cells and to facilitate RNAi-mediated knock-down, respectively.\n(§2) Compound Feeding: Compound treated food was made by diluting compound stocks (made in 100% DMSO) in semi-defined Drosophila medium to achieve a final concentration of 0.5% DMSO (empirically determined as the non-toxic DMSO dose in semi-defined Drosophila medium). Adult flies were kept on compound treated medium in standard Drosophila vials for 7 days (30 flies/vial, 1 ml food/vial) and provided with fresh compound food every other day.\nCompound Feeding: Compounds used in this study were (stock concentrations and sources in parentheses) AZD6244 (200 mM, Selleck Chemicals), SL327 (200 mM, Tocris), GW5074 (100 mM, Tocris), Sorafenib (200 mM, LC Labs), LY294002 (200 mM, LC Labs), Rapamycin (200 mM, LC Labs), BEZ235 (20 mM, LC Labs), Dasatinib (200 mM, LC Labs), SP600125 (200 mM, LC Labs), Bortezomib (200 mM, LC Labs), Cisplatin (200 mM, Sigma), LBH589 (200 mM, LC Labs), Wortmannin (200 mM, LC Labs), PI-103-HCl (100 mM, Tocris), Everolimus (100 mM, LC Labs) and Enzastaurin (50 mM, LC Labs).\nImaging and Scoring: Fluorescence images were taken using a Leica TCS SPE confocal microscope and processed using the Leica LAS-AF software. Scoring and imaging of SA-β-gal staining was performed using an Olympus BX41 microscope and a Nikon DS-Ri1 camera. Distant migration was imaged and scored using a Leica MZ16F dissecting scope with a GFP filter under 10× magnification.\nStatistical Analysis: Statistical significance for the distant migration assay was calculated using Fisher's exact test as this test allows the analysis of contingency tables where sample sizes are relatively small. Use of a 4×2 contingency table allowed pairwise comparisons of the distant migration phenotype, which has four phenotypic categories, between different genotypes and/or treatment conditions. Each experiment was performed in duplicate (n=25-30 for each replicate) and multiple times. Error bars indicate standard error of the mean.\nGiven the low success rate of drug approvals for colorectal cancer (3) the study herein asked whether differences in genetic complexity influence a tumor model's response to drugs. Sixteen compounds that target key cancer relevant pathways and cellular processes were selected (FIG. 11); many of these compounds are currently in clinical trials including for colorectal cancer (25-27). Commencing the day of transgene induction, animals were fed compounds for one week and then scored for issemination into the abdominal cavity. Final compound concentrations in the media ranged from 1 μM-1 mM, corresponding to approximately 10-200 ng/day/animal based on adult feeding rates (FIG. 11)."}, "[2]": {"system": "ras^G12V pten^RNAi animals", "experiment": "Dissemination after compound feeding, ras^G12V pten^RNAi double", "format": "in vivo, Drosophila", "conditions": "single agent", "method": "as §1\nas §2, with “day. […]” for “day.”\n(§3) Imaging and Scoring: Fluorescence images were taken using a Leica TCS SPE confocal microscope and processed using the Leica LAS-AF software. […] Distant migration was imaged and scored using a Leica MZ16F dissecting scope with a GFP filter under 10× magnification.\n(§4) Statistical Analysis: Statistical significance for the distant migration assay was calculated using Fisher's exact test as this test allows the analysis of contingency tables where sample sizes are relatively small. […]"}, "[3]": {"system": "ras^G12V p53^RNAi apc^RNAi animals", "experiment": "Dissemination after compound feeding, ras^G12V p53^RNAi apc^RNAi triple", "format": "in vivo, Drosophila", "conditions": "single agent", "method": "as §1\nas §2, with “day. […]” for “day.”\nas §3, §4"}, "[4]": {"system": "PI3K and TORC1 activity (p-4EBP)", "experiment": "Western blot analysis of PI3K pathway activity in hindguts after compound treatment", "format": "in vivo, Drosophila", "conditions": "four-hit hindguts; for p-4EBP levels: seven days", "text": "Western Blot Analysis: Primary antibodies used were rabbit anti-Drosophila phospho-AKT (S505) (1:1000, Cell Signaling), rabbit anti-pan-AKT (1:1000, Cell Signaling), rabbit anti-phospho-4EBP (T37/46) (1:1000, Cell Signaling), rabbit anti-human phospho-AKT (Ser473) (1:1000, Cell Signaling), mouse anti-α-actin (1:1000, Cell Signaling) and mouse anti-Syntaxin (1:1000, DSHB). HRP-conjugated anti-mouse and anti-rabbit antibodies were used as secondary antibodies (1:5000, Cell Signaling). For signal detection, Immobilon Chemiluminescent HRP Substrate (Millipore) was used.\nas §2\nWestern Blot Analysis: Tissue lysates for western analysis were made by grinding 10-20 hindguts in lysis buffer (50 mM Tris-HCl, 150 mM NaCl, 1 mM EDTA, 1% NP-40) supplemented with protease and phosphatase inhibitor cocktails (Sigma). Lysates were boiled for 10 minutes in SDS Sample buffer and reducing agent, resolved on SDS-Page and transferred using standard protocols. Cell lysates are prepared similarly. Protein concentrations were determined using BioRad Protein Assay Dye Reagent following manufacturer's instructions."}, "DLD-1 cells": {"system": "DLD-1 cells", "experiment": "MTT viability assay, DLD-1 cells", "format": "cell-based, human", "conditions": "for viability after bortezomib pre-treatment alone: doses that sensitize to BEZ235", "method": "(§5) Cell culture: Parental DLD-1 and HCT-116 cell lines (ATCC) and their PI3K wildtype derivatives (DLD-1 WT and HCT116 WT) (38) that were obtained from Dr. Bert Vogelstein's laboratory were maintained using DMEM with 10% FBS. All experiments were done under low serum (2.5% FBS) conditions (38). MTT assay: Cells were grown in sterile 25 cm^2 flasks to 80% confluency, trypsinized, resuspended in 100 mL DMEM with 2.5% FBS and seeded in 96-well plates in equal numbers. After 24 hours, cells were treated with compounds diluted in DMEM with 2.5% FBS as indicated for 1, 2 or 3 days. MTT assay was performed by replacing compound containing medium with fresh DMEM with 2.5% FBS and 10 mg/ml MTT reagent (Thiazoyl Blue tetrazolium Bromide, Fisher Scientific) in PBS at a ratio of 5:1 (120 μl/well; 96-well plates). Cells are incubated at 37° C. for 3 hours, then the medium is removed and cells are incubated in MTT solvent (4 mM HCl, 0.1% NP40 in isopropanol) on a shaker. The amount of MTT formazan in the resulting solution is spectrophotometrically measured at […] (and a reference filter of 620 nM). Adjusted absorbance value for each well is calculated using the following formula: (OD590SAMPLE-OD590BLANK)−(OD620SAMPLE-OD620BLANK). Each experiment is done in quadruple and relative viability is expressed as fold change in adjusted absorbance compared to untreated and DMSO treated controls in each plate."}, "HCT116 cells": {"system": "HCT116 cells", "experiment": "MTT viability assay, HCT116 cells", "format": "cell-based, human", "method": "as §5"}, "[5]": {"system": "ras^G12V animals (adult hindgut)", "experiment": "Dissemination (distant migration) into the abdominal cavity after compound feeding, ras^G12V model", "format": "in vivo, Drosophila", "conditions": "compounds fed for one week, single agent", "method": "as §1\nas §2, with “day. […]” for “day.”\nas §3, §4"}, "PI3K pathway": {"system": "PI3K pathway", "experiment": "Western blot of PI3K pathway activation in DLD-1 cells", "format": "cell-based, human", "conditions": "DLD-1 cells treated with bortezomib", "quoted_text": "Western Blot Analysis: Primary antibodies used were rabbit anti-Drosophila phospho-AKT ([MUT]) (1:1000, Cell Signaling), rabbit anti-pan-AKT (1:1000, Cell Signaling), rabbit anti-phospho-4EBP (T37/46) (1:1000, Cell Signaling), rabbit anti-human phospho-AKT (Ser473) (1:1000, Cell Signaling), mouse anti-α-actin (1:1000, Cell Signaling) and mouse anti-Syntaxin (1:1000, DSHB). HRP-conjugated anti-mouse and anti-rabbit antibodies were used as secondary antibodies (1:5000, Cell Signaling). For signal detection, Immobilon Chemiluminescent HRP Substrate (Millipore) was used. […] All experiments were done under low serum (2.5% FBS) conditions (38). […] Lysates were boiled for 10 minutes in SDS Sample buffer and reducing agent, resolved on SDS-Page and transferred using standard protocols. Cell lysates are prepared similarly. Protein concentrations were determined using BioRad Protein Assay Dye Reagent following manufacturer's instructions."}, "[6]": {"system": "ras^G12V p53^RNAi pten^RNAi apc^RNAi animals", "conditions": "Drosophila, in vivo, 7 days", "experimental": "Targets, feeding doses and toxicity of compounds. a, List of compounds used for feeding experiments along with their targets, mechanisms of actions and concentrations used in the food. Estimated amount ingested was calculated based on our observations that adult females ingest approximately 0.2 μl of food per day (not shown). Estimated amount of ingested compound was also converted into mg/kg body weight/day using 1.1 mg as the average weight of an adult female. b, Survival curves of ras^G12V p53^RNAi pten^RNAi apc^RNAi animals fed the indicated compounds."}},
  "note": "Entries after “also recorded” stand apart in the source; their conditions may differ.",
  "data": [
    {"molecule": "Cn1c(=O)n(-c2ccc(C(C)(C)C#N)cc2)c2c3cc(-c4cnc5ccccc5c4)ccc3ncc21", "note": "[BEZ235]", "values": [
      {"measurement": "dissemination in combination with bortezomib", "setting": "[1]; four-hit model", "result": "synergized"},
      {"measurement": "dissemination after sequential treatment, bortezomib followed by BEZ235", "setting": "[1]; four-hit model, sequential feeding", "result": "effective; also recorded: much more effective than concurrent feeding"},
      {"measurement": "dissemination, response to BEZ235", "setting": "[2]", "result": "sufficient to direct resistance to BEZ235"},
      {"measurement": "dissemination, response to BEZ235", "setting": "[3]", "result": "rendered the animals sensitive to BEZ235"},
      {"measurement": "p-4EBP levels", "setting": "[4]; combined with bortezomib", "result": "reduced p-4EBP back to baseline levels"},
      {"measurement": "sensitivity to BEZ235 after pretreatment with bortezomib", "setting": "DLD-1 cells; DLD-1 cells, bortezomib pretreatment for 24 hours", "result": "Increased sensitivity; also recorded: rendered DLD-1 cells sensitive to BEZ235 treatment; also recorded: sensitize the cells to BEZ235"},
      {"measurement": "BEZ235 dose response, parental versus PI3K wildtype line", "setting": "DLD-1 cells; DLD-1 parental (Ras and PI3K active) vs DLD-1-WT", "result": "more resistant to BEZ235 than the derivative line DLD-1-WT"},
      {"measurement": "sensitivity to BEZ235 after pretreatment with bortezomib", "setting": "HCT116 cells; HCT116 cells, bortezomib pretreatment for 24 hours", "result": "sensitize the cells to BEZ235"},
      {"measurement": "BEZ235 dose response, parental versus PI3K wildtype line", "setting": "HCT116 cells; HCT116 parental (Ras and PI3K active) vs HCT116-WT", "result": "more resistant to BEZ235 than its PI3K pathway wildtype counterpart, HCT116-WT"}
    ]},
    {"molecule": "Cc1[nH]c2ccccc2c1CCNCc1ccc(/C=C/C(=O)NO)cc1", "note": "[LBH589]", "values": [
      {"measurement": "distant migration (dissemination into the abdominal cavity)", "setting": "[5]", "result": "effective against ras^G12V"},
      {"measurement": "distant migration (dissemination into the abdominal cavity)", "setting": "[1]", "result": "not against ras^G12V p53^RNAi pten^RNAi apc^RNAi at non-toxic doses"}
    ]},
    {"molecule": "O=c1cc(N2CCOCC2)oc2c(-c3ccccc3)cccc12", "note": "[LY294002, 2-(4-morpholinyl)-8-phenyl-4H-1-benzopyran-4-one]", "values": [
      {"measurement": "dissemination in combination with bortezomib", "setting": "[1]; four-hit model", "result": "synergized"},
      {"measurement": "p-4EBP levels", "setting": "[4]; combined with bortezomib", "result": "reduced p-4EBP back to baseline levels"}
    ]},
    {"molecule": "Oc1cccc(-c2nc(N3CCOCC3)c3oc4ncccc4c3n2)c1", "note": "[P1103]", "values": [
      {"measurement": "dissemination in combination with bortezomib", "setting": "[1]; four-hit model", "result": "synergized"}
    ]},
    {"molecule": "CC(C)C[C@H](NC(=O)[C@H](Cc1ccccc1)NC(=O)c1cnccn1)B(O)O", "note": "[bortezomib]", "values": [
      {"measurement": "distant migration (dissemination into the abdominal cavity)", "setting": "[1]", "result": "only showed efficacy at doses that otherwise killed more than 70% of the animals"},
      {"measurement": "PI3K and TORC1 activity", "setting": "[4]; low doses of bortezomib", "result": "directed upregulation of PI3K and TORC1 activity"},
      {"measurement": "p-4EBP levels", "setting": "[4]; bortezomib treatment alone", "result": "increase in p-4EBP levels"},
      {"measurement": "viability after bortezomib pre-treatment alone", "setting": "DLD-1 cells; DLD-1 cells", "result": "did not affect survival"},
      {"measurement": "viability after bortezomib pre-treatment alone", "setting": "DLD-1 cells; DLD-1 cells, listed as Bortezomib", "result": "does not affect the viability; also recorded: has no effect on viability"},
      {"measurement": "viability after bortezomib pre-treatment alone", "setting": "HCT116 cells; HCT116 cells, doses that sensitize to BEZ235", "result": "does not affect the viability; also recorded: has no effect on viability"},
      {"measurement": "PI3K pathway activation status", "setting": "PI3K pathway", "result": "activated the PI3K pathway"},
      {"measurement": "animals killed at doses showing efficacy", "setting": "[6]", "result": "more than 70 % of the animals"}
    ]}
  ]
}
